Read-outs that look alike come from different tables or passages of the source.
Assays:
rat CB2 receptor (rCB2) = target: T1, rat CB2 receptor (rCB2) (Rattus norvegicus, UniProt Q9QZN9); assay: cell-based; format: cell-based; settings: for +/− RCB2: agonist or inverse agonist at rCB2
T1 sequence (Q9QZN9 1-360): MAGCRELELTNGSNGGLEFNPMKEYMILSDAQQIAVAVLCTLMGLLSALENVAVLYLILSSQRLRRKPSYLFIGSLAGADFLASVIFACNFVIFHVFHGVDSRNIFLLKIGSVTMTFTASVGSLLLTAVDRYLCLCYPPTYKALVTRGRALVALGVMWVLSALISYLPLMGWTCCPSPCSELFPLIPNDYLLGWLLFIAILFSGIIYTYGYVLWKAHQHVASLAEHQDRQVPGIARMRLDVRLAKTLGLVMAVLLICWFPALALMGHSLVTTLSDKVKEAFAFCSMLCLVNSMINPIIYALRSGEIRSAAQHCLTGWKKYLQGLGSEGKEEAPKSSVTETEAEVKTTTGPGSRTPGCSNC
Method in brief: (§1)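 Agonism or inverse agonism was assessed as change in intracellular cAMP in CHO-K1 cells expressing human CB1 or rat CB2 (genomic DNA, pcDNA3.1).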

[1] = target: human CB1 receptor (hCB1) (Homo sapiens, UniProt P21554); assay: cell-based; format: cell-based; settings: for +/− HCB1: agonist or inverse agonist at hCB1
Method in brief: as §1

Chain of human CB1 receptor (hCB1) (P21554 whole entry): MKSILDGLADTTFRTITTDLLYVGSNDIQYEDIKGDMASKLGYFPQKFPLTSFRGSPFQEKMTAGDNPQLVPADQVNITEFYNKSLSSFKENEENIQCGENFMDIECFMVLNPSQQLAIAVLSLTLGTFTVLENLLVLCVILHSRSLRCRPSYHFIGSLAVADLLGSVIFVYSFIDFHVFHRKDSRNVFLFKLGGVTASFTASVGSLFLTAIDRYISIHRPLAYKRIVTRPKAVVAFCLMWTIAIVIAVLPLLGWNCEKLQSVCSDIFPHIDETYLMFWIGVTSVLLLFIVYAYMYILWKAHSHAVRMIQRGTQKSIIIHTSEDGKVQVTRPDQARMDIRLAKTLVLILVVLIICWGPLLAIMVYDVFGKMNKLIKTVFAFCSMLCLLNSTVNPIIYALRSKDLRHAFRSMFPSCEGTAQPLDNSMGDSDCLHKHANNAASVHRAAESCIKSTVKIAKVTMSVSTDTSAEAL

CNC(=O)[C@@H](NC(=O)c1nc(C2CCC(F)(F)CC2)n2c1CN(C)CCC2)C(C)(C)C [Compound 528, (S)-3-(4,4-difluorocyclohexyl)-N-(3,3-dimethyl-1-(methylamino)-1-oxobutan-2-yl)-8-methyl-6,7,8,9-tetrahydro-5H-imidazo[1,5-a][1,4]diazepine-1-carboxamide]
+/− RCB2 (rat CB2 receptor (rCB2)): + | EC50 [1]: > 10000 nM

CNC(=O)[C@H](CC(C)C)NC(=O)c1nc(-c2ccc(Cl)cc2F)n2c1CN(C)CCC2 [Compound 529, (S)-3-(4-chloro-2-fluorophenyl)-8-methyl-N-(4-methyl-1-(methylamino)-1-oxopentan-2-yl)-6,7,8,9-tetrahydro-5H-imidazo[1,5-a][1,4]diazepine-1-carboxamide]
+/− RCB2 (rat CB2 receptor (rCB2)): + | EC50 [1]: > 10000 nM

CNC(=O)[C@H](CC(C)C)NC(=O)c1nc(-c2ccc(F)cc2)n2c1CN(C)CCC2 [Compound 530, (S)-3-(4-fluorophenyl)-8-methyl-N-(4-methyl-1-(methylamino)-1-oxopentan-2-yl)-6,7,8,9-tetrahydro-5H-imidazo[1,5-a][1,4]diazepine-1-carboxamide]
+/− RCB2 (rat CB2 receptor (rCB2)): + | EC50 [1]: > 10000 nM

CNC(=O)[C@H](CC(C)C)NC(=O)c1nc(-c2cccc(F)c2)n2c1CN(C)CCC2 [Compound 531, (S)-3-(3-fluorophenyl)-8-methyl-N-(4-methyl-1-(methylamino)-1-oxopentan-2-yl)-6,7,8,9-tetrahydro-5H-imidazo[1,5-a][1,4]diazepine-1-carboxamide]
+/− RCB2 (rat CB2 receptor (rCB2)): + | EC50 [1]: > 10000 nM

CNC(=O)[C@H](CC(C)C)NC(=O)c1nc(-c2cc(F)ccc2F)n2c1CN(C)CCC2 [Compound 532, (S)-3-(2,5-difluorophenyl)-8-methyl-N-(4-methyl-1-(methylamino)-1-oxopentan-2-yl)-6,7,8,9-tetrahydro-5H-imidazo[1,5-a][1,4]diazepine-1-carboxamide]
+/− RCB2 (rat CB2 receptor (rCB2)): − | EC50 [1]: > 10000 nM

CNC(=O)[C@H](CC(C)C)NC(=O)c1nc(-c2ccc(C(F)(F)F)cc2F)n2c1CN(C)CCC2 [Compound 533, (S)-3-(2-fluoro-4-(trifluoromethyl)phenyl)-8-methyl-N-(4-methyl-1-(methylamino)-1-oxopentan-2-yl)-6,7,8,9-tetrahydro-5H-imidazo[1,5-a][1,4]diazepine-1-carboxamide]
+/− RCB2 (rat CB2 receptor (rCB2)): + | EC50 [1]: > 10000 nM

CNC(=O)[C@H](CC(C)C)NC(=O)c1nc(-c2ccc(F)cc2F)n2c1CN(C)CCC2 [Compound 534, (S)-3-(2,4-difluorophenyl)-8-methyl-N-(4-methyl-1-(methylamino)-1-oxopentan-2-yl)-6,7,8,9-tetrahydro-5H-imidazo[1,5-a][1,4]diazepine-1-carboxamide]
+/− RCB2 (rat CB2 receptor (rCB2)): + | EC50 [1]: > 10000 nM

CNC(=O)[C@H](CC(C)C)NC(=O)c1nc(-c2ccc(F)c(F)c2)n2c1CN(C)CCC2 [Compound 535, (S)-3-(3,4-difluorophenyl)-8-methyl-N-(4-methyl-1-(methylamino)-1-oxopentan-2-yl)-6,7,8,9-tetrahydro-5H-imidazo[1,5-a][1,4]diazepine-1-carboxamide]
+/− RCB2 (rat CB2 receptor (rCB2)): + | EC50 [1]: > 10000 nM

CNC(=O)[C@H](CC(C)C)NC(=O)c1nc(-c2cc(Cl)ccc2F)n2c1CN(C)CCC2 [Compound 536, (S)-3-(5-chloro-2-fluorophenyl)-8-methyl-N-(4-methyl-1-(methylamino)-1-oxopentan-2-yl)-6,7,8,9-tetrahydro-5H-imidazo[1,5-a][1,4]diazepine-1-carboxamide]
+/− RCB2 (rat CB2 receptor (rCB2)): + | EC50 [1]: > 10000 nM

CNC(=O)[C@H](CC(C)C)NC(=O)c1nc(-c2ccc(F)c(Cl)c2)n2c1CN(C)CCC2 [Compound 537, (S)-3-(3-chloro-4-fluorophenyl)-8-methyl-N-(4-methyl-1-(methylamino)-1-oxopentan-2-yl)-6,7,8,9-tetrahydro-5H-imidazo[1,5-a][1,4]diazepine-1-carboxamide]
+/− RCB2 (rat CB2 receptor (rCB2)): + | EC50 [1]: > 10000 nM

CNC(=O)[C@H](CC(C)C)NC(=O)c1nc(-c2cc(F)c(F)cc2F)n2c1CN(C)CCC2 [Compound 538]
+/− RCB2 (rat CB2 receptor (rCB2)): + | +/− HCB1 [1]: +

CNC(=O)[C@H](CC(C)C)NC(=O)c1nc(-c2cc(Cl)c(F)cc2F)n2c1CN(C)CCC2 [Compound 539, (S)-3-(5-chloro-2,4-difluorophenyl)-8-methyl-N-(4-methyl-1-(methylamino)-1-oxopentan-2-yl)-6,7,8,9-tetrahydro-5H-imidazo[1,5-a][1,4]diazepine-1-carboxamide]
+/− RCB2 (rat CB2 receptor (rCB2)): + | +/− HCB1 [1]: +

CNC(=O)[C@H](CC(C)C)NC(=O)c1nc(C2CCCCC2)n2c1CN(C)CCC2 [Compound 540, (S)-3-cyclohexyl-8-methyl-N-(4-methyl1-1-(methylamino)-1-oxopentan-2-yl)-6,7,8,9-tetrahydro-5H-imidazo[1,5-a][1,4]diazepine-1-carboxamide]
+/− RCB2 (rat CB2 receptor (rCB2)): + | EC50 ([1]; groups >100 nM-10 μM and >10 μM, cAMP, CHO-K1 hCB1, read-out: EC50 HCB1): > 10000 nM

CNC(=O)[C@@H](NC(=O)c1nc(-c2cc(F)c(F)cc2F)n2c1CN(C)CCC2)C1CCCCC1 [Compound 541, (S)-N-(1-cyclohexyl-2-(methylamino)-2-oxoethyl)-8-methyl-3-(2,4,5-trifluorophenyl)-6,7,8,9-tetrahydro-5H-imidazo[1,5-a][1,4]diazepine-1-carboxamide]
+/− RCB2 (rat CB2 receptor (rCB2)): + | +/− HCB1 [1]: +

CNC(=O)[C@@H](NC(=O)c1nc(-c2cc(Cl)c(F)cc2F)n2c1CN(C)CCC2)C1CCCCC1 [Compound 542, (S)-3-(5-chloro-2,4-difluorophenyl)-N-(1-cyclohexyl-2-(methylamino)-2-oxoethyl)-8-mehtyl-6,7,8,9-tetrahydro-5H-imidazo[1,5-a][1,4]diazepine-1-carboxamide]
+/− RCB2 (rat CB2 receptor (rCB2)): + | +/− HCB1 [1]: +

CNC(=O)[C@@H](NC(=O)c1nc(-c2ccccc2)n2c1CN(C)CCC2)c1ccccc1 [Compound 543, (S)-8-methyl-N-(2-(methylamino)-2-oxo-1-phenylethyl)-3-phenyl-6,7,8,9-tetrahydro-5H-imidazo[1,5-a][1,4]diazepine-1-carboxamide]
+/− RCB2 (rat CB2 receptor (rCB2)): + | EC50 [1]: > 10000 nM

CNC(=O)[C@H](CC(C)(C)C)NC(=O)c1nc(-c2ccc(Cl)cc2F)n2c1CN(C)CCC2 [Compound 544, (S)-3-(4-chloro-2-fluorophenyl)-N-(4,4-dimethyl-1-(methylamino)-1-oxopentan-2-yl)-8-methyl-6,7,8,9-tetrahydro-5H-imidazo[1,5-a][1,4]diazepine-1-carboxamide]
+/− RCB2 (rat CB2 receptor (rCB2)): + | +/− HCB1 [1]: +

CNC(=O)[C@H](CC(C)(C)C)NC(=O)c1nc(-c2cc(Cl)ccc2F)n2c1CN(C)CCC2 [Compound 545, (S)-3-(5-chloro-2-fluorophenyl)-N-(4,4-dimethyl-1-(methylamino)-1-oxopentan-2-yl)-8-methyl-6,7,8,9-tetrahydro-5H-imidazo[1,5-a][1,4]diazepine-1-carboxamide]
+/− RCB2 (rat CB2 receptor (rCB2)): + | +/− HCB1 [1]: +

CNC(=O)[C@H](CC(C)(C)C)NC(=O)c1nc(-c2ccc(F)cc2)n2c1CN(C)CCC2 [Compound 547, (S)-N-(4,4-dimethyl-1-(methylamino)-1-oxopentan-2-yl)-3-(4-fluorophenyl)-8-methyl-6,7,8,9-tetrahydro-5H-imidazo[1,5-a][1,4]diazepine-1-carboxamide]
+/− RCB2 (rat CB2 receptor (rCB2)): + | +/− HCB1 [1]: +

CNC(=O)[C@H](CC(C)(C)C)NC(=O)c1nc(-c2cccc(F)c2)n2c1CN(C)CCC2 [Compound 548, (S)-N-(4,4-dimethyl-1-(methylamino)-1-oxopentan-2-yl)-3-(3-fluorophenyl)-8-methyl-6,7,8,9-tetrahydro-5H-imidazo[1,5-a][1,4]diazepine-1-carboxamide]
+/− RCB2 (rat CB2 receptor (rCB2)): + | +/− HCB1 [1]: +

CNC(=O)[C@H](CC(C)(C)C)NC(=O)c1nc(-c2ccc(F)cc2F)n2c1CN(C)CCC2 [Compound 549, (S)-3-(2,4-difluorophenyl)-N-(4,4-dimethyl-1-(methylamino)-1-oxopentan-2-yl)-8-methyl-6,7,8,9-tetrahydro-5H-imidazo[1,5-a][1,4]diazepine-1-carboxamide]
EC50 (rat CB2 receptor (rCB2)): > 10 µM | EC50 [1]: > 10000 nM

CNC(=O)[C@H](CC(C)(C)C)NC(=O)c1nc(-c2ccc(Cl)c(F)c2)n2c1CN(C)CCC2 [Compound 550, (S)-3-(4-chloro-3-fluorophenyl)-N-(4,4-dimethyl-1-(methylamino)-1-oxopentan-2-yl)-8-methyl-6,7,8,9-tetrahydro-5H-imidazo[1,5-a][1,4]diazepine-1-carboxamide]
+/− RCB2 (rat CB2 receptor (rCB2)): − | EC50 [1]: > 10000 nM

CNC(=O)[C@H](CC(C)(C)C)NC(=O)c1nc(-c2ccc(C(F)(F)F)cc2F)n2c1CN(C)CCC2 [Compound 551, (S)-N-(4,4-dimethyl-1-(methylamino)-1-oxopentan-2-yl)-3-(2-fluoro-4-(trifluoromethyl)phenyl)-8-methyl-6,7,8,9-tetrahydro-5H-imidazo[1,5-a][1,4]diazepine-1-carboxamide]
+/− RCB2 (rat CB2 receptor (rCB2)): + | +/− HCB1 [1]: +

CNC(=O)[C@H](CC(C)(C)C)NC(=O)c1nc(-c2ccc(F)c(F)c2)n2c1CN(C)CCC2 [Compound 552, (S)-3-(3,4-diflurophenyl)-N-(4,4-dimethyl-1-(methylamino)-1-oxopentan-2-yl)-8-methyl-6,7,8,9-tetrahydro-5H-imidazo[1,5-a][1,4]diazepine-1-carboxamide]
+/− RCB2 (rat CB2 receptor (rCB2)): + | +/− HCB1 [1]: +

— US7517874B2 (priority 2007, dated 2009)
